ChEMBL document CHEMBL4811307, “Design, synthesis and biological evaluation of dual Bcl-2/Mcl-1 inhibitors bearing 2-(1H-indol-4-yl)benzoic acid scaffold” (Bioorg Med Chem Lett, 2021)

How the values were obtained:
Bcl-2-like protein 1 = Bcl-2-like protein 1 (Homo sapiens, UniProt Q07817); experiment: Binding affinity to Bc1-xL (unknown origin) by fluorescence polarization competition assay
[1] = molecular target: Induced myeloid leukemia cell differentiation protein Mcl-1 (Homo sapiens, UniProt Q07820); experiment: Binding affinity to Mc1-1 (unknown origin) by fluorescence polarization competition assay
Chain of Induced myeloid leukemia cell differentiation protein Mcl-1 (Q07820 whole entry): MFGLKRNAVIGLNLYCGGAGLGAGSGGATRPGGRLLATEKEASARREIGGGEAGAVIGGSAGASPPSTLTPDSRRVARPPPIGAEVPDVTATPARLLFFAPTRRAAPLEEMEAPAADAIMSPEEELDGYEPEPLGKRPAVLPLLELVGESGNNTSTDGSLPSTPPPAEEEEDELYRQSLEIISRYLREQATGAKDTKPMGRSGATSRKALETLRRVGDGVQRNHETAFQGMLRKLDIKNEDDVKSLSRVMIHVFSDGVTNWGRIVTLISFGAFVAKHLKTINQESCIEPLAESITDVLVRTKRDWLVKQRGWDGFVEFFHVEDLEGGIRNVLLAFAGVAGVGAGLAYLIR

Chain of Bcl-2-like protein 1 (Q07817 whole entry): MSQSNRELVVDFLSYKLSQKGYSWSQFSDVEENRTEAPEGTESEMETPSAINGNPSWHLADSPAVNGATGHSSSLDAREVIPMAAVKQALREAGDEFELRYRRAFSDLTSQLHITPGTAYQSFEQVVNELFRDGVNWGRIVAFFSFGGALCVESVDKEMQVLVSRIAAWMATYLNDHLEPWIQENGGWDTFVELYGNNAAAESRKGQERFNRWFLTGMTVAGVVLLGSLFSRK

| Compound | Ki (Bcl-2-like protein 1) | Ki [1] [nM] | Ki (Bcl-2-like protein 1; read-out: Ki) [nM] |
| --- | --- | --- | --- |
| O=C(O)c1ccccc1-c1cccc2c1ccn2CCCOc1cccc2ccccc12 | Not Active | 1190 | – |
| O=C(O)c1ccc(Cl)cc1-c1cccc2c1ccn2CCCOc1cccc2ccccc12 | – | 220 | 2300 |
| O=C(O)c1ccccc1-c1cccc2c1c(-c1cccc(Cl)c1)cn2Cc1cccc2ccccc12 | – | 450 | > 200000 |
| O=C(O)c1ccccc1-c1cccc2c1c(-c1cccc(C(F)(F)F)c1)cn2Cc1cccc2ccccc12 | – | 190 | > 200000 |
| Cc1ccccc1-c1cn(Cc2cccc3ccccc23)c2cccc(-c3ccccc3C(=O)O)c12 | – | 70 | > 200000 |
| CC1(C)CCC(CN2CCN(c3ccc(C(=O)NS(=O)(=O)c4ccc(NCC5CCOCC5)c([N+](=O)[O-])c4)c(Oc4cnc5[nH]ccc5c4)c3)CC2)=C(c2ccc(Cl)cc2)C1 [VENETOCLAX] | – | > 200000 | – |
| Cc1cc2c(C(C)C)c(O)c(O)c(C=O)c2c(O)c1-c1c(C)cc2c(C(C)C)c(O)c(O)c(C=O)c2c1O [GOSSYPOL] | – | – | 610 |
| Cc1ccc(-c2cn(Cc3cccc4ccccc34)c3cccc(-c4ccccc4C(=O)O)c23)cc1 | – | 230 | > 200000 |
| O=C(O)c1ccccc1-c1cccc2c1c(-c1ccccc1)cn2Cc1cccc2ccccc12 | – | 120 | > 200000 |
| Cc1cccc(-c2cn(Cc3cccc4ccccc34)c3cccc(-c4ccccc4C(=O)O)c23)c1 | – | 960 | > 200000 |
| COc1cccc(-c2cn(Cc3cccc4ccccc34)c3cccc(-c4ccccc4C(=O)O)c23)c1 | – | 290 | > 200000 |
| O=C(O)c1ccccc1-c1cccc2c1c(-c1cccc(C(F)(F)F)c1)cn2CCCOc1cccc2ccccc12 | – | 280 | 3100 |

Further lines, results first:

| Ki (Bcl-2-like protein 1) | Ki [1] [nM] | Ki (Bcl-2-like protein 1; read-out: Ki) [nM] | Compound |
| --- | --- | --- | --- |
| – | 170 | > 200000 | CC(C)c1ccccc1-c1cn(CCOc2cccc3ccccc23)c2cccc(-c3ccccc3C(=O)O)c12 |
| – | 270 | > 200000 | CCc1ccccc1-c1cn(CCOc2cccc3ccccc23)c2cccc(-c3ccccc3C(=O)O)c12 |
| – | 170 | > 200000 | Cc1ccccc1-c1cn(CCOc2cccc3ccccc23)c2cccc(-c3ccccc3C(=O)O)c12 |
| – | 170 | > 200000 | COc1ccccc1-c1cn(CCOc2cccc3ccccc23)c2cccc(-c3ccccc3C(=O)O)c12 |
| – | 360 | 2300 | O=C(O)c1ccccc1-c1cccc2c1c(-c1cccc(Cl)c1)cn2CCOc1cccc2ccccc12 |
| – | 920 | > 200000 | Cc1cccc(-c2cn(CCOc3cccc4ccccc34)c3cccc(-c4ccccc4C(=O)O)c23)c1 |
| – | 270 | > 200000 | COc1ccccc1-c1cn(Cc2cccc3ccccc23)c2cccc(-c3ccccc3C(=O)O)c12 |
| – | 710 | > 200000 | Cc1cccc(-c2cn(CCOc3cccc4ccccc34)c3cccc(-c4ccccc4C(=O)O)c23)c1C |
| – | 250 | > 200000 | Cc1ccc(-c2cn(CCOc3cccc4ccccc34)c3cccc(-c4ccccc4C(=O)O)c23)cc1 |
| – | 30 | 6100 | O=C(O)c1ccccc1-c1cccc2c1c(-c1cccc(C(F)(F)F)c1)cn2CCOc1cccc2ccccc12 |
| – | 1330 | > 200000 | Cc1cccc(-c2cn(CCCOc3cccc4ccccc34)c3cccc(-c4ccccc4C(=O)O)c23)c1 |
